Reference: ChEMBL document CHEMBL5370549, “Optimization and evaluation of pyridinyl vinyl sulfones as Nrf2 activator for the antioxidant and anti-inflammatory effects” (Eur J Med Chem, 2023)

Key:
[1] = biological target: T1, CYP1A2 (Homo sapiens, UniProt P05177); test: Inhibition of CYP1A2 (unknown origin) assessed as enzyme activity at 10 uM relative to control; format: ADME; design: scale not given: the % may be the effect or the level left; conditions: read-out: Activity
T1 sequence (P05177 whole entry): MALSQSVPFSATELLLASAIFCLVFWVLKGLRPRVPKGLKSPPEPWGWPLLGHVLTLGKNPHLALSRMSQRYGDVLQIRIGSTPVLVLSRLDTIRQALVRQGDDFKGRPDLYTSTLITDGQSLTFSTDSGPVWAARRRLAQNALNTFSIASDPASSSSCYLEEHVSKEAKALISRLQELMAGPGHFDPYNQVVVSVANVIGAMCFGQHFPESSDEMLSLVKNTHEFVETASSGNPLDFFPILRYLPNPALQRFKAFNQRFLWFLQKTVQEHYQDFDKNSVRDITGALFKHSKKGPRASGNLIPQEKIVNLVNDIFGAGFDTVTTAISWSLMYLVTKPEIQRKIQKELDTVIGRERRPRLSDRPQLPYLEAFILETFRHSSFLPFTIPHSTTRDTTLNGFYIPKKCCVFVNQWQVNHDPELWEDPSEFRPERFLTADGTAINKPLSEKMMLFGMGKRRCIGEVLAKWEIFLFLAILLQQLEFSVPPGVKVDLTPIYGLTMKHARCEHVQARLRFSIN

[2] = Metabolic stability of the compound in mouse liver microsomes assessed as parent compound remaining measured after 30 mins; format: ADME, Microsome; conditions: read-out: Stability
[3] = Metabolic stability of the compound in human liver microsomes assessed as parent compound remaining measured after 30 mins; format: ADME, Microsome; conditions: read-out: Stability
[4] = biological target: CYP2C19 (Homo sapiens, UniProt P33261); test: Inhibition of CYP2C19 (unknown origin) assessed as enzyme activity at 10 uM relative to control; format: ADME; design: scale not given: the % may be the effect or the level left; conditions: read-out: Activity
Chain of CYP2C19 (P33261 whole entry): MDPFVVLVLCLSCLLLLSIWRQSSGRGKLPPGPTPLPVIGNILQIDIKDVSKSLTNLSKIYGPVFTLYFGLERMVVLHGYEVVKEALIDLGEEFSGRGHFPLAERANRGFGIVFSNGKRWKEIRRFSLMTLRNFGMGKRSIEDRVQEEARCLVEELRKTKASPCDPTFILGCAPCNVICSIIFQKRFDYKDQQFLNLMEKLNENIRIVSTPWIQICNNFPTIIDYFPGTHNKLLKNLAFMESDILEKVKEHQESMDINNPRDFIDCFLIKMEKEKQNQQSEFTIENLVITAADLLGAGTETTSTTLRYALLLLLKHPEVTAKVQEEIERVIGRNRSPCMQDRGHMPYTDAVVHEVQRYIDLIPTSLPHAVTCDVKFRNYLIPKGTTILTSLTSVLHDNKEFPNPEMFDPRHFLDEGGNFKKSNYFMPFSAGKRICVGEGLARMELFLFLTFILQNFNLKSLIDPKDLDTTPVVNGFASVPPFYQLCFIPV

[5] = biological target: CYP2C9 (Homo sapiens, UniProt P11712); test: Inhibition of CYP2C9 (unknown origin) assessed as enzyme activity at 10 uM relative to control; format: ADME; design: scale not given: the % may be the effect or the level left; conditions: read-out: Activity
Chain of CYP2C9 (P11712 whole entry): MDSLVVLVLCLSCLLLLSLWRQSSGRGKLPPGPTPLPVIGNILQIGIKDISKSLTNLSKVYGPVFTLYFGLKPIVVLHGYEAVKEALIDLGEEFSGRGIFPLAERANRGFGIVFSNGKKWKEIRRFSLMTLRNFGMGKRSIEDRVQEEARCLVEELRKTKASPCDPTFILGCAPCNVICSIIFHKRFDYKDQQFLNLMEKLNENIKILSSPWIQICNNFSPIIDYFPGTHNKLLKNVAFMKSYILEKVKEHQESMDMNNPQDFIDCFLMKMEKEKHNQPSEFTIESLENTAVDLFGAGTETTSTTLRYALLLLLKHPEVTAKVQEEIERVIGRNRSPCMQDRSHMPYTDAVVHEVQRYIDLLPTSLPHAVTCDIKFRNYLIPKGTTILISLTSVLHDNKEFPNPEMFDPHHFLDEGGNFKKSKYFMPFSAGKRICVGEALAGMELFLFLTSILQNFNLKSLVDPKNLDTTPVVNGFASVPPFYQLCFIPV

[6] = biological target: CYP2D6 (Homo sapiens, UniProt P10635); test: Inhibition of CYP2D6 (unknown origin) assessed as enzyme activity at 10 uM relative to control; format: ADME; design: scale not given: the % may be the effect or the level left; conditions: read-out: Activity
Chain of CYP2D6 (P10635 whole entry): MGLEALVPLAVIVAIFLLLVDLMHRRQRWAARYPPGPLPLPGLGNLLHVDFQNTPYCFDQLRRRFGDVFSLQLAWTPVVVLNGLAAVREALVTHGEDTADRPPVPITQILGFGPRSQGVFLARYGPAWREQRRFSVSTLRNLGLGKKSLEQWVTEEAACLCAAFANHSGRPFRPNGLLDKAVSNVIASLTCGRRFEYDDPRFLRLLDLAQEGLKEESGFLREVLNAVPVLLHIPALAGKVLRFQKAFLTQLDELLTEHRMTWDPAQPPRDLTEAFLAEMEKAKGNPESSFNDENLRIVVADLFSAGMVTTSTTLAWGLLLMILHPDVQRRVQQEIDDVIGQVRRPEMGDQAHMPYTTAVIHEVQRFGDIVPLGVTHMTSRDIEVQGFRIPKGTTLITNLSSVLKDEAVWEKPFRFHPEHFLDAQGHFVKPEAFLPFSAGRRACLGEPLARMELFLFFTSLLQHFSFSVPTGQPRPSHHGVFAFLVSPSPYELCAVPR

[7] = Metabolic stability of the compound in human plasma assessed as parent compound remaining measured after 30 mins; format: ADME, cell-free; conditions: read-out: Stability
[8] = biological target: T2, Nuclear factor erythroid 2-related factor 2 (Homo sapiens, UniProt Q16236); test: Activation of Nrf2 in human U2OS cells co-expressing Keap1 assessed as induction of Nrf2 nuclear translocation incubated for 6 hrs by PathHunter chemiluminescence based analysis; format: cell-based
T2 sequence (Q16236 whole entry): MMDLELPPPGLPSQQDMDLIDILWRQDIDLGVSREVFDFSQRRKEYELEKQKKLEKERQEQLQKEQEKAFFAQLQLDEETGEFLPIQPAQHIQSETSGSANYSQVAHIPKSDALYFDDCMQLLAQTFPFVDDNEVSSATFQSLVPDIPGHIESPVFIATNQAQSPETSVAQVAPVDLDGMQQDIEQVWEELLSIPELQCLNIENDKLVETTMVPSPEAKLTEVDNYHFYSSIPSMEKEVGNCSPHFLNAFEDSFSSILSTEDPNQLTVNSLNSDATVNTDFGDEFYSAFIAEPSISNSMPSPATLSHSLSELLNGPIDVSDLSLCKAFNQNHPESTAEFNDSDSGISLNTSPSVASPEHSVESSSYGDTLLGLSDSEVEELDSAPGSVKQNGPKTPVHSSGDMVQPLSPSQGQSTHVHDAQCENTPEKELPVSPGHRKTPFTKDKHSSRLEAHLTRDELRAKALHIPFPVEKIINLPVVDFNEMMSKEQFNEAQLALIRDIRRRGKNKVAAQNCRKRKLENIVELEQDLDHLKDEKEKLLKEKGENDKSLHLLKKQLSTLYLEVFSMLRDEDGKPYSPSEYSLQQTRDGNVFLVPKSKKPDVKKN

[9] = Metabolic stability of the compound in rat plasma assessed as parent compound remaining measured after 30 mins; format: ADME, cell-free; conditions: read-out: Stability
[10] = biological target: CYP3A4 (Homo sapiens, UniProt P08684); test: Inhibition of CYP3A4 (unknown origin) assessed as enzyme activity at 10 uM relative to control; format: ADME; design: scale not given: the % may be the effect or the level left; conditions: read-out: Activity
Chain of CYP3A4 (P08684 whole entry): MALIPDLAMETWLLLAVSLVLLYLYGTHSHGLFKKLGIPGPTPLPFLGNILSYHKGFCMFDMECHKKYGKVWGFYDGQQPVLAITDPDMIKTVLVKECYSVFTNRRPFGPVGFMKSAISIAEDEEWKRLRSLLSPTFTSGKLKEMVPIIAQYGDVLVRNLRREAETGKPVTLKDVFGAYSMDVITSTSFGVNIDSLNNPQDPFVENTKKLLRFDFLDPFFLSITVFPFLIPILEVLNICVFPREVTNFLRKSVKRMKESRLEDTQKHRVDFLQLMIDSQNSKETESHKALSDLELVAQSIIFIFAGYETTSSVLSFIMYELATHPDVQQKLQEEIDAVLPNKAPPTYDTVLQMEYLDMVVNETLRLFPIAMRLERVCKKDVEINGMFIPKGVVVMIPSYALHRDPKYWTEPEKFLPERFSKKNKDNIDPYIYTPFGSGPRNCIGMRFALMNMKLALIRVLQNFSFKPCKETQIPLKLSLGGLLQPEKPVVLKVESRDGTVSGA

Compound | activity at 10 µM [1] | remaining at 0.5 h [2] | remaining at 0.5 h [3] | activity at 10 µM [4] | activity at 10 µM [5] | activity at 10 µM [6] | remaining at 0.5 h [7] | EC50 [8] | remaining at 0.5 h [9] | activity at 10 µM [10]
COc1ccc(S(=O)(=O)/C=C/c2ncccc2Cl)nc1 | 74.2% | 44% | 48.1% | 29% | > 99% | > 99% | 96.7% | 0.033 µM | 91.5% | 72.6%
COc1ccnc(S(=O)(=O)/C=C/c2ncccc2C(F)(F)F)c1 | 72.2% | 19% | 63.2% | 29.8% | 31% | > 99% | 90.9% | 0.174 µM | 82.4% | 83.2%
COc1ccnc(S(=O)(=O)/C=C/c2ccccc2C(F)(F)F)c1 | 33.8% | 1.6% | 58.5% | 14.9% | 38.2% | 96.3% | 99% | 0.115 µM | 95.3% | 39.8%
COc1ccc(S(=O)(=O)/C=C/c2ncccc2C(F)(F)F)nc1 | 61.1% | 60.1% | 57.2% | 21.7% | > 99% | > 99% | 96.2% | 0.275 µM | 91.9% | 88.9%
COc1cccc(S(=O)(=O)/C=C/c2ccccc2C(F)(F)F)n1 | 4.9% | 6% | 19.3% | 13.2% | 71% | 91.7% | 98.4% | 0.316 µM | 91.8% | 30.6%
COc1cccc(S(=O)(=O)/C=C/c2ccccc2Cl)n1 | 6.73% | 4.4% | 13.8% | 7.7% | > 99% | 97.6% | > 99% | 0.231 µM | 98.9% | 28%
COc1ccnc(S(=O)(=O)/C=C/c2ccnc(Cl)c2)c1 | 89.6% | 64.5% | 88.4% | 24.3% | > 99% | > 99% | 93.1% | 0.4 µM | 59% | > 99%
COc1cccnc1S(=O)(=O)/C=C/c1ccccc1F | 79.4% | 63.6% | 89.4% | 68.4% | 79.7% | 98.8% | 95.9% | 0.801 µM | 93% | 89.8%
COc1cccc(S(=O)(=O)/C=C/c2ncccc2C(F)(F)F)n1 | 18.2% | 4% | 38.8% | 15.1% | 81.9% | > 99% | 94.2% | 0.194 µM | 82.7% | 32.5%
COc1cccnc1S(=O)(=O)/C=C/c1ncccc1C(F)(F)F | 72.6% | 64.7% | 87.8% | 60.5% | 69.7% | > 99% | 94% | 0.107 µM | 84.1% | 36.4%
COc1ccnc(S(=O)(=O)/C=C/c2ncccc2Cl)c1 | 69.9% | 36.8% | 61.7% | 27.6% | 76.1% | 100% | 95% | 0.03 µM | 65.9% | 70.9%
COc1ccnc(S(=O)(=O)/C=C/c2ccc(Cl)nc2)c1 | 83% | 82.1% | 65.8% | 17.9% | 91.7% | > 99% | 98.6% | 0.914 µM | 97.3% | > 99%
COc1ccnc(S(=O)(=O)/C=C/c2ccc(Cl)cn2)c1 | 33.3% | 67.6% | 70.3% | 10.7% | > 99% | 96.3% | 91.1% | 1.31 µM | 84.8% | 95.1%
COc1cccnc1S(=O)(=O)/C=C/c1ccccc1C(F)(F)F | 71.2% | 17.8% | 52.9% | 59.1% | 79.2% | 99.1% | 96.8% | 0.146 µM | 93.5% | 76%
